*1 amine or outer side, *2 acyl side, *3 side chain or, on linkers, in order; H or OH if unused. Where a SMILES comes first, the peptide text is derived from it. Bridges are numbered along the chain shown (N, C = ends). Side-chain parts run from the residue outwards. [ ]: non-standard residue; d: D form. The star is where a group is joined. X4 = O=C(CNC(=O)[C@@H](O)[C@H](N[*:1])C(=O)[*:2])OCc1ccccc1; Phe(3R-OH) = O=C([C@@H](N[*:1])[C@H](O[*:3])c1ccccc1)[*:2]; X8 = O=C(NCCCN1CCOCC1)[C@@H](O)[C@H](N[*:1])C(=O)[*:2]; X6 = NC(=O)CNC(=O)[C@@H](O)[C@H](N[*:1])C(=O)[*:2]; X3 = O=C([C@@H](N[*:1])[C@H](O)C(=O)[*:3])[*:2]; X5 = NCCNC(=O)[C@@H](O)[C@H](N[*:1])C(=O)[*:2]; Asn(3S-OH) = NC(=O)[C@@H](O)[C@H](N)C(=O)O; Leu(3R-OH) = CC(C)[C@@H](O)[C@H](N)C(=O)O; Ethylenediamine = C(CN[*:2])N[*:1]; aThr = C[C@H](O)[C@H](N)C(=O)O; Cbz = O=C(OCc1ccccc1)*
Assays:
[1] = Determination of the free fraction (fu) in plasma; type: in vitro ADME, rat; conditions: rat, plasma, pH 7.4
Experimental: (§1) Principle of the Determination of the Free Fraction Via Transil:
(§2) The method described here for determining the free fraction (fu) of a test substance is divided into 2 parts:
(§3) a) Determination of the Transil®/buffer distribution ratio (MAbuffer) by incubating the test substance in a Transil®-buffer (pH 7.4) dispersion and subsequently determining the concentration in the dispersion and in the buffer supernatant.
(§4) b) Determination of the Transil®/plasma distribution ratio (MAplasma) by incubating the test substance in a Transil®-plasma dispersion and subsequently determining the concentration in the dispersion and in the plasma.
(§5) The quotient of the two distribution ratios yields fu.
(§6) In the case of highly protein-bound substances, the plasma is usually diluted with isotonic phosphate buffer (pH 7.4) and then suspended with Transil®. The determination of fu′ (free fraction in diluted plasma) in this diluted protein solution takes place in analogy to the determination of fu. The free fraction in undiluted plasma is calculated from fu′ and the dilution factor.
(§7) Concerning this method, compare also: Schuhmacher, Joachim; Kohlsdorfer, Christian; Buehner, Klaus; Brandenburger, Tim; Kruk, Renate, “High-throughput determination of the free fraction of drugs strongly bound to plasma proteins.” Journal of Pharmaceutical Sciences 2004, 93, 816-830.
(§8) Determination of the Membrane Affinity of a Test Substance after Distribution Between Transil® and Buffer (MAbuffer):
(§9) All incubations are carried out in suitable glass vessels, e.g. glass vials, ground-socket test tubes. In general the total volume is 0.5-5 ml, and the Transil® volume 10-100 μl. In cases where the membrane affinities are expected to be high, the Transil® dispersion can be diluted up to 20-fold with phosphate buffer of pH 7.4, e.g. Dulbecco's PBS. Phosphate buffer of pH 7.4 is provided in the incubation vessels, and the Transil® is pipetted in, after thorough mixing. The test substance is pipetted in at a concentration of, for example, 200 ng/mL, n=6. The proportion of organic solvent should be <2%. The mixtures are incubated at room temperature for 30 min, e.g. on a mini-shaker at an angle of about 45°, at about 400 rpm. In order to determine the 100% value at least one aliquot of, for example, 100 μl, is removed and the remaining mixture is centrifuged at about 1800 g for about 10 min. At least 2 aliquots (e.g. 100 μl) of the supernatant are removed from each sample for the determination of the concentration.
(§10) Determination of MAplasma in Undiluted or Diluted Plasma:
(§11) The total incubation volume and the added volume of Transil® depend on the expected free fraction. In general the total volume is 0.5-1 ml, and the Transil® volume is 10-100 μl. In cases where the free fractions are very low, the plasma of the species to be investigated is diluted, with isotonic buffer solution, pH 7.4, e.g. 10-400-fold, and the Transil® is then added. The subsequent procedure takes place as described above for the determination of the MAbuffer values. […]
(§12) The plasma of the species to be investigated is filtered through a semipermeable membrane. The substance concentration in the filtrate is measured and the free fraction fu is calculated therefrom. […] The substance concentration in the ultrafiltrate (Cu; unbound substance concentration) and in the plasma before centrifugation (C; total substance concentration) is measured. The free fraction is calculated by the formula: fu (%)=Cu/C*100.

[2] = Determination of the free fraction (fu) in plasma; type: in vitro ADME; conditions: human
Experimental: as §1, §2, §3, §4, §5, §6, §7, §8, §9, §10, §11, §12

[3] = tested on: Staphylococcus aureus 133; type: cell-based; conditions: 133
Experimental: (§13) Determination of the Minimum Inhibitory Concentration (MIC):
(§14) The MIC is determined in the liquid dilution test in accordance with the NCCLS guidelines. Overnight cultures of Staphylococcus aureus 133, Enterococcus faecalis 27159, E. faecium 4147 and Streptococcus pneumoniae G9a are incubated with the described test substances in a 1:2 dilution series. The MIC determination is carried out with a cell count of 10^5 microbes per ml in Isosensitest medium (Difco, Irvine/USA), with the exception of S. pneumoniae which is tested in BHI broth (Difco, Irvine/USA) with 10% bovine serum with a cell count of 10^6 microbes per ml. The cultures are incubated at 37° C. for 18-24 hours, S. pneumoniae in the presence of 10% CO2.
(§15) The MIC is defined as the lowest concentration of each substance at which no visible bacterial growth occurs any longer. The MIC values are reported in μg/ml.

[4] = tested on: Streptococcus pneumoniae G9a; type: cell-based; conditions: G9a
Experimental: as §13, §14, §15

E. faecalis ICB 27159 = type: cell-based, Enterococcus faecalis; conditions: ICB 27159
Experimental: as §13, §14, §15

SMILES	fraction unbound at 30 min, 200 ng/mL [1]	fraction unbound at 30 min [2]	MIC S. aureus 133 [3]	MIC S. pneumoniae G9a [4]	MIC E. faecalis ICB 27159 (E. faecalis ICB 27159)
CC[C@H](C)[C@@H]1NC(=O)[C@@H](CCCNC(=N)N)NC(=O)[C@H](CC(C)C)NC(=O)[C@H]([C@H](O)C(C)C)NC(=O)[C@@H](NC(=O)[C@H](CC(C)C)NC(=O)[C@H](N)CC(C)C)[C@@H](c2ccccc2)OC(=O)[C@H](CO)NC(=O)[C@H]([C@H](O)C(=O)NCCNC(=O)OCc2ccccc2)NC(=O)CNC(=O)[C@H]([C@H](C)O)NC1=O.O=C(O)C(F)(F)F.O=C(O)C(F)(F)F [Example 9, N^4.10-(2-{[(Benzyloxy)carbonyl]amino}ethyl)-D-leucyl-L-leucyl-[(3R)-3-hydroxy-L-phenylalanyl]-[(3R)-3-hydroxy-L-leucyl]-L-leucyl-D-arginyl-L-isoleucyl-L-allothreon-ylglycyl-[(3S)-3-hydroxy-L-asparaginyl]-L-serine C^1.11—O^3.3-lactone Bistrifluoroacetate] (H-[dL]L[Phe(3R-OH)][Leu(3R-OH)]L[dR]I[aThr]G[X3]([Ethylenediamine-Cbz])S; ester 3-C)			0.5 µg/mL	2 µg/mL	16 µg/mL
CC[C@H](C)[C@@H]1NC(=O)[C@@H](CCCNC(=N)N)NC(=O)[C@H](CC(C)C)NC(=O)[C@H]([C@H](O)C(C)C)NC(=O)[C@@H](NC(=O)[C@H](CC(C)C)NC(=O)[C@H](N)CC(C)C)[C@@H](c2ccccc2)OC(=O)[C@H](CO)NC(=O)[C@H]([C@H](O)C(=O)NCC(N)=O)NC(=O)CNC(=O)[C@H]([C@H](C)O)NC1=O.O=C(O)C(F)(F)F.O=C(O)C(F)(F)F [Example 10, N^4.10-(2-Amino-2-oxoethyl)-D-leucyl-L-leucyl-[(3R)-3-hydroxy-L-phenylalanyl]-[(3R)-3-hydroxy-L-leucyl]-L-leucyl-D-arginyl-L-isoleucyl-L-allothreonylglycyl-[(3S)-3-hydroxy-L-asparaginyl]-L-serine C^1.11—O^3.3-lactone Bistrifluoroacetate] (H-[dL]L[Phe(3R-OH)][Leu(3R-OH)]L[dR]I[aThr]G[X6]S; ester 3-C)			0.25 µg/mL	1 µg/mL	2 µg/mL
CC[C@H](C)[C@@H]1NC(=O)[C@@H](CCCNC(=N)N)NC(=O)[C@H](CC(C)C)NC(=O)[C@H]([C@H](O)C(C)C)NC(=O)[C@@H](NC(=O)[C@H](CC(C)C)NC(=O)[C@H](N)CC(C)C)[C@@H](c2ccccc2)OC(=O)[C@H](CO)NC(=O)[C@H]([C@H](O)C(=O)NCCN)NC(=O)CNC(=O)[C@H]([C@H](C)O)NC1=O.O=C(O)C(F)(F)F.O=C(O)C(F)(F)F.O=C(O)C(F)(F)F [Example 12, N^4.10-(2-Aminoethyl)-D-leucyl-L-leucyl-[(3R)-3-hydroxy-L-phenylalanyl]-[(3R)-3-hydroxy-L-leucyl]-L-leucyl-D-arginyl-L-isoleucyl-L-allothreonylglycyl-[(3S)-3-hydroxy-L-asparaginyl]-L-serine C^1.11—O^3.3-lactone Tristrifluoroacetate] (H-[dL]L[Phe(3R-OH)][Leu(3R-OH)]L[dR]I[aThr]G[X5]S; ester 3-C)			0.5 µg/mL	2 µg/mL	8 µg/mL

The remaining lines, values ahead:

fraction unbound at 30 min, 200 ng/mL [1]	fraction unbound at 30 min [2]	MIC S. aureus 133 [3]	MIC S. pneumoniae G9a [4]	MIC E. faecalis ICB 27159 (E. faecalis ICB 27159)	SMILES
0.0076	0.0081				CC[C@H](C)[C@@H]1NC(=O)[C@@H](CCCNC(=N)N)NC(=O)[C@H](CC(C)C)NC(=O)[C@H]([C@H](O)C(C)C)NC(=O)[C@@H](NC(=O)[C@H](CC(C)C)NC(=O)[C@H](N)CC(C)C)[C@@H](c2ccccc2)OC(=O)[C@H](CO)NC(=O)[C@H]([C@H](O)C(N)=O)NC(=O)CNC(=O)[C@H]([C@H](C)O)NC1=O [1a (Lysobactin), D-Leucyl-N^1-{(3S,6S,12S,15S,18R,21S,24S,27S,28R)-6-[(1S)-2-amino-1-hydroxy-2-oxo-ethyl]-18-(3-{[amino(imino)methyl]amino}propyl)-12-[(1S)-1-hydroxyethyl]-3-(hydroxy-methyl)-24-[(1R)-1-hydroxy-2-methylpropyl]-21-isobutyl-15-[(1S)-1-methylpropyl]-2,5,8,11,14,17,20,23,26-nonaoxo-28-phenyl-1-oxa-4,7,10,13,16,19,22,25-octaazacyclo-octacosan-27-yl}-L-leucinamide Bistrifluoroacetate, reference compound] (H-[dL]L[Phe(3R-OH)][Leu(3R-OH)]L[dR]I[aThr]G[Asn(3S-OH)]S; ester 3-C)
0.068	0.024				CC[C@H](C)[C@@H]1NC(=O)[C@@H](CCCNC(=N)N)NC(=O)[C@H](CC(C)C)NC(=O)[C@H]([C@H](O)C(C)C)NC(=O)[C@@H](NC(=O)[C@H](CC(C)C)NC(=O)[C@H](N)CC(C)C)[C@@H](c2ccccc2)OC(=O)[C@H](CO)NC(=O)[C@H]([C@H](O)C(=O)NCCCN2CCOCC2)NC(=O)CNC(=O)[C@H]([C@H](C)O)NC1=O [Example 4, N^4.10-(3-Morpholin-4-yl-propyl)-D-leucyl-L-leucyl-[(3R)-3-hydroxy-L-phenylalanyl]-[(3R)-3-hydroxy-L-leucyl]-L-leucyl-D-arginyl-L-isoleucyl-L-allothreonylglycyl-[(3S)-3-hydroxy-L-asparaginyl]-L-serine C^1.11—O^3.3-lactone Tristrifluoroacetate] (H-[dL]L[Phe(3R-OH)][Leu(3R-OH)]L[dR]I[aThr]G[X8]S; ester 3-C)
		0.5 µg/mL	2 µg/mL	16 µg/mL	CC[C@H](C)[C@@H]1NC(=O)[C@@H](CCCNC(=N)N)NC(=O)[C@H](CC(C)C)NC(=O)[C@H]([C@H](O)C(C)C)NC(=O)[C@@H](NC(=O)[C@H](CC(C)C)NC(=O)[C@H](N)CC(C)C)[C@@H](c2ccccc2)OC(=O)[C@H](CO)NC(=O)[C@H]([C@H](O)C(=O)NCC(=O)OCc2ccccc2)NC(=O)CNC(=O)[C@H]([C@H](C)O)NC1=O.O=C(O)C(F)(F)F.O=C(O)C(F)(F)F [Example 8, N^4.10-(2-(Benzyloxy)-2-oxoethyl)-D-leucyl-L-leucyl-[(3R)-3-hydroxy-L-phenylalanyl]-[(3R)-3-hydroxy-L-leucyl]-L-leucyl-D-arginyl-L-isoleucyl-L-allothreonylglycyl-[(3S)-3-hydroxy-L-β-asparaginyl]-L-serine C^1.11—O^3.3-lactone Bistrifluoroacetate] (H-[dL]L[Phe(3R-OH)][Leu(3R-OH)]L[dR]I[aThr]G[X4]S; ester 3-C)
